# Source: PubChem BioAssay (NCI)
#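 Briefly, cells in 96-well plates were exposed to five compound concentrations for 48 h, and endpoints were estimated by linear interpolation. GI50 = concentration required for 50% inhibition of growth. TGI: concentration producing complete growth inhibition.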
# Tests used:
# Assay in all cases: NCI anticancer screen, dose series, 48 h
# 786-0 renal = system: 786-0 renal
# A498 renal = system: A498 renal
# A549 NSCLC = system: A549 NSCLC
# ACHN renal = system: ACHN renal
# BT-549 breast = system: BT-549 breast
# CAKI-1 renal = system: CAKI-1 renal
# CCRF-CEM leukemia = system: CCRF-CEM leukemia
# COLO 205 colon = system: COLO 205 colon
# DU-145 prostate = system: DU-145 prostate
# EKVX NSCLC = system: EKVX NSCLC
# HCC-2998 colon = system: HCC-2998 colon
# HCT-116 colon = system: HCT-116 colon
# HCT-15 colon = system: HCT-15 colon
# HL-60(TB) leukemia = system: HL-60(TB) leukemia
# HOP-62 NSCLC = system: HOP-62 NSCLC
# HOP-92 NSCLC = system: HOP-92 NSCLC
# HS 578T breast = system: HS 578T breast
# HT29 colon = system: HT29 colon
# IGROV1 ovarian = system: IGROV1 ovarian
# K-562 leukemia = system: K-562 leukemia
# KM12 colon = system: KM12 colon
# LOX IMVI melanoma = system: LOX IMVI melanoma
# M14 melanoma = system: M14 melanoma
# MALME-3M melanoma = system: MALME-3M melanoma
# MCF7 breast = system: MCF7 breast
# MDA-MB-231 breast = system: MDA-MB-231 breast
# MDA-MB-435 = system: MDA-MB-435
# MOLT-4 leukemia = system: MOLT-4 leukemia
# NCI-H226 lung = system: NCI-H226 lung
# NCI-H23 lung = system: NCI-H23 lung
# NCI-H460 lung = system: NCI-H460 lung
# NCI-H522 lung = system: NCI-H522 lung
# NCI/ADR-RES ovarian = system: NCI/ADR-RES ovarian
# OVCAR-3 ovarian = system: OVCAR-3 ovarian
# OVCAR-4 ovarian = system: OVCAR-4 ovarian
# OVCAR-5 ovarian = system: OVCAR-5 ovarian
# OVCAR-8 ovarian = system: OVCAR-8 ovarian
# PC-3 prostate = system: PC-3 prostate
# RPMI-8226 leukemia = system: RPMI-8226 leukemia
# RXF 393 renal = system: RXF 393 renal
# SF-268 CNS = system: SF-268 CNS
# SF-295 CNS = system: SF-295 CNS
# SF-539 CNS = system: SF-539 CNS
# SK-MEL-2 melanoma = system: SK-MEL-2 melanoma
# SK-MEL-28 melanoma = system: SK-MEL-28 melanoma
# SK-MEL-5 melanoma = system: SK-MEL-5 melanoma
# SK-OV-3 ovarian = system: SK-OV-3 ovarian
# SN12C renal = system: SN12C renal
# SNB-19 CNS = system: SNB-19 CNS
# SNB-75 CNS = system: SNB-75 CNS
# SR leukemia = system: SR leukemia
# SW-620 colon = system: SW-620 colon
# T-47D breast = system: T-47D breast
# TK-10 renal = system: TK-10 renal
# U251 CNS = system: U251 CNS
# UACC-257 melanoma = system: UACC-257 melanoma
# UACC-62 melanoma = system: UACC-62 melanoma
# UO-31 renal = system: UO-31 renal
smiles,measurement,setting,value
COc1ccc2c(-c3ccnc(Nc4cccc(OC(F)(F)F)c4)n3)cnn2n1,GI50,786-0 renal,1720 nM
same,TGI,786-0 renal,5480 nM
same,GI50,A498 renal,999 nM
same,TGI,A498 renal,10600 nM
same,GI50,A549 NSCLC,1820 nM
same,TGI,A549 NSCLC,5420 nM
same,GI50,ACHN renal,1800 nM
same,TGI,ACHN renal,> 25000 nM
same,GI50,BT-549 breast,1480 nM
same,TGI,BT-549 breast,> 25000 nM
same,GI50,CAKI-1 renal,877 nM
same,TGI,CAKI-1 renal,> 9770 nM
same,GI50,CCRF-CEM leukemia,1090 nM
same,TGI,CCRF-CEM leukemia,> 25000 nM
same,GI50,COLO 205 colon,1300 nM
same,TGI,COLO 205 colon,> 19900 nM
same,GI50,DU-145 prostate,1350 nM
same,TGI,DU-145 prostate,17600 nM
same,GI50,EKVX NSCLC,2870 nM
same,TGI,EKVX NSCLC,> 25000 nM
same,GI50,HCC-2998 colon,2140 nM
same,TGI,HCC-2998 colon,8820 nM
same,GI50,HCT-116 colon,1030 nM
same,TGI,HCT-116 colon,3960 nM
same,GI50,HCT-15 colon,1030 nM
same,TGI,HCT-15 colon,> 23000 nM
same,GI50,HL-60(TB) leukemia,1070 nM
same,TGI,HL-60(TB) leukemia,> 25000 nM
same,GI50,HOP-62 NSCLC,1110 nM
same,TGI,HOP-62 NSCLC,> 15900 nM
same,GI50,HOP-92 NSCLC,801 nM
same,TGI,HOP-92 NSCLC,7110 nM
same,GI50,HS 578T breast,835 nM
same,TGI,HS 578T breast,> 9950 nM
same,GI50,HT29 colon,912 nM
same,TGI,HT29 colon,3060 nM
same,GI50,IGROV1 ovarian,2390 nM
same,TGI,IGROV1 ovarian,> 12500 nM
same,GI50,K-562 leukemia,420 nM
same,TGI,K-562 leukemia,> 25000 nM
same,GI50,KM12 colon,772 nM
same,TGI,KM12 colon,3950 nM
same,GI50,LOX IMVI melanoma,1020 nM
same,TGI,LOX IMVI melanoma,6470 nM
same,GI50,M14 melanoma,1260 nM
same,TGI,M14 melanoma,> 12900 nM
same,GI50,MALME-3M melanoma,5430 nM
same,TGI,MALME-3M melanoma,> 25000 nM
same,GI50,MCF7 breast,1070 nM
same,TGI,MCF7 breast,6150 nM
same,GI50,MDA-MB-231 breast,3630 nM
same,TGI,MDA-MB-231 breast,> 25000 nM
same,GI50,MDA-MB-435,144 nM
same,TGI,MDA-MB-435,692 nM
same,GI50,MOLT-4 leukemia,2230 nM
same,TGI,MOLT-4 leukemia,> 25000 nM
same,GI50,NCI-H226 lung,> 10300 nM
same,TGI,NCI-H226 lung,> 25000 nM
same,GI50,NCI-H23 lung,1200 nM
same,TGI,NCI-H23 lung,7410 nM
same,GI50,NCI-H460 lung,1060 nM
same,TGI,NCI-H460 lung,4790 nM
same,GI50,NCI-H522 lung,366 nM
same,TGI,NCI-H522 lung,1770 nM
same,GI50,NCI/ADR-RES ovarian,730 nM
same,TGI,NCI/ADR-RES ovarian,6740 nM
same,GI50,OVCAR-3 ovarian,661 nM
same,TGI,OVCAR-3 ovarian,1680 nM
same,GI50,OVCAR-4 ovarian,3320 nM
same,TGI,OVCAR-4 ovarian,12500 nM
same,GI50,OVCAR-5 ovarian,3530 nM
same,TGI,OVCAR-5 ovarian,> 21100 nM
same,GI50,OVCAR-8 ovarian,1840 nM
same,TGI,OVCAR-8 ovarian,10500 nM
same,GI50,PC-3 prostate,987 nM
same,TGI,PC-3 prostate,> 25000 nM
same,GI50,RPMI-8226 leukemia,1770 nM
same,TGI,RPMI-8226 leukemia,> 21000 nM
same,GI50,RXF 393 renal,1740 nM
same,TGI,RXF 393 renal,6660 nM
same,GI50,SF-268 CNS,1530 nM
same,TGI,SF-268 CNS,6530 nM
same,GI50,SF-295 CNS,683 nM
same,TGI,SF-295 CNS,> 14800 nM
same,GI50,SF-539 CNS,909 nM
same,TGI,SF-539 CNS,3520 nM
same,GI50,SK-MEL-2 melanoma,1390 nM
same,TGI,SK-MEL-2 melanoma,17100 nM
same,GI50,SK-MEL-28 melanoma,3470 nM
same,TGI,SK-MEL-28 melanoma,> 25000 nM
same,GI50,SK-MEL-5 melanoma,1100 nM
same,TGI,SK-MEL-5 melanoma,9560 nM
same,GI50,SK-OV-3 ovarian,1190 nM
same,TGI,SK-OV-3 ovarian,6100 nM
same,GI50,SN12C renal,1750 nM
same,TGI,SN12C renal,> 18300 nM
same,GI50,SNB-19 CNS,1670 nM
same,TGI,SNB-19 CNS,> 23200 nM
same,GI50,SNB-75 CNS,806 nM
same,TGI,SNB-75 CNS,4880 nM
same,GI50,SR leukemia,904 nM
same,TGI,SR leukemia,> 25000 nM
same,GI50,SW-620 colon,856 nM
same,TGI,SW-620 colon,4840 nM
same,GI50,T-47D breast,1710 nM
same,TGI,T-47D breast,6560 nM
same,GI50,TK-10 renal,4050 nM
same,TGI,TK-10 renal,12200 nM
same,GI50,U251 CNS,1080 nM
same,TGI,U251 CNS,5180 nM
same,GI50,UACC-257 melanoma,1550 nM
same,TGI,UACC-257 melanoma,> 25000 nM
same,GI50,UACC-62 melanoma,863 nM
same,TGI,UACC-62 melanoma,6940 nM
same,GI50,UO-31 renal,2550 nM
same,TGI,UO-31 renal,> 12300 nM
